# Laboratory results taken from ChEMBL document CHEMBL1126239, “Quinazoline antifolate thymidylate synthase inhibitors: difluoro-substituted benzene ring analogues” (J Med Chem, 1992).
# What was measured:
# [1] = system: L1210; assay: The compound was tested in vitro for the inhibition of L1210 cell growth in culture; type: functional, cell-based; details: Mus musculus
# [2] = system: L1210; assay: The compound was tested in vitro for the inhibition of L1210 cell growth in the presence of thymidine; type: functional, Mus musculus; design: concentration or dose not given beside the values
# [3] = molecular target: Thymidylate synthase (Mus musculus, UniProt P07607); assay: Inhibition of thymidylate synthase from L1210 cells; type: cell-based
# Chain of Thymidylate synthase (P07607 whole entry): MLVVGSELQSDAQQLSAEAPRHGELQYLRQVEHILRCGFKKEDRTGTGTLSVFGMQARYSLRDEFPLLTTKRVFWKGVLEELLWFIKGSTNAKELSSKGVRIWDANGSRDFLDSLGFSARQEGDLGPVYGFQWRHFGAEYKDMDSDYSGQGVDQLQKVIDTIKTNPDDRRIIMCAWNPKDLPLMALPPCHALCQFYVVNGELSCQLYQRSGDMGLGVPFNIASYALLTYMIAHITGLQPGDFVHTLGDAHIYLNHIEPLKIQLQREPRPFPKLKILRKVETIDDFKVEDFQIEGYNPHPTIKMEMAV
SMILES,IC50 [1] [µM],IC50 [3] [µM],Control [2] [%]
Cc1nc(O)c2cc(CN(C)c3cc(F)c(C(=O)N[C@@H](CCC(=O)O)C(=O)O)cc3F)ccc2n1,0.075,1.1,94
C#CCN(Cc1ccc2nc(C)nc(O)c2c1)c1cc(F)c(C(=O)N[C@@H](CCC(=O)O)C(=O)O)cc1F,0.027,0.6,95
C#CCN(Cc1ccc2nc(C)nc(O)c2c1)c1cc(F)c(C(=O)N[C@@H](CCC(=O)O)C(=O)O)c(F)c1,0.062,0.08,93
Cc1nc(O)c2cc(CN(C)c3ccc(C(=O)N[C@@H](CCC(=O)O)C(=O)O)c(F)c3F)ccc2n1,0.14,1,–

# Now from value to compound, other results behind:
IC50 [1] [µM],IC50 [3] [µM],SMILES,Control [2] [%]
0.28,1.7,C#CCN(Cc1ccc2nc(C)nc(O)c2c1)c1ccc(C(=O)N[C@@H](CCC(=O)O)C(=O)O)c(F)c1F,94
0.05,0.95,Cc1nc(O)c2cc(CN(C)c3cc(F)c(C(=O)N[C@@H](CCC(=O)O)C(=O)O)c(F)c3)ccc2n1,90
